What was measured:
Assay type in all cases: biochemical
[1] = biological target: TXK (Homo sapiens (Human), UniProt P42681); assay: IC50 against TXK; settings: for TXK/ITK: ratio of TXK IC50 to ITK IC50
[2] = biological target: JAK3 (Homo sapiens (Human), UniProt P52333); assay: IC50 against JAK3
[3] = biological target: BTK (Homo sapiens (Human), UniProt Q06187); assay: IC50 against BTK
[4] = biological target: ITK (Homo sapiens (Human), UniProt Q08881); assay: IC50 against ITK
ITK, sequence (Q08881 whole entry): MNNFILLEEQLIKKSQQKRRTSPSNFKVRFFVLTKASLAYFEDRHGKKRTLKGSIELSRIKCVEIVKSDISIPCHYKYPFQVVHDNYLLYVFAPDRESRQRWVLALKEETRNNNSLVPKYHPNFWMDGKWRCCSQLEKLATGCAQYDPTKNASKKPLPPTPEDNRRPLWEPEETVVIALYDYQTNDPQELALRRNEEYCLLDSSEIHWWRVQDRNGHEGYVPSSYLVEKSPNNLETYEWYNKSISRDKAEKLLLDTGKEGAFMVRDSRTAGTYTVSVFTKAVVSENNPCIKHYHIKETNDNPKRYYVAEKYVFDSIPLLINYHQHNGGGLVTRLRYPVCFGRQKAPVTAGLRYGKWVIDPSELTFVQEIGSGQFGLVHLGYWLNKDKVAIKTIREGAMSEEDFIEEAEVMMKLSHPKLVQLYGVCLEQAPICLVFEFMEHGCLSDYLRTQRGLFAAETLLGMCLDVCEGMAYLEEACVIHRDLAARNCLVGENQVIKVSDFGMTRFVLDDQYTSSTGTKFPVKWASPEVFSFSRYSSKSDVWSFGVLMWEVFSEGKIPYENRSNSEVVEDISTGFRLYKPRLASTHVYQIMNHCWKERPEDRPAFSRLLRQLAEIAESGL

TXK, sequence (P42681 whole entry, species assumed): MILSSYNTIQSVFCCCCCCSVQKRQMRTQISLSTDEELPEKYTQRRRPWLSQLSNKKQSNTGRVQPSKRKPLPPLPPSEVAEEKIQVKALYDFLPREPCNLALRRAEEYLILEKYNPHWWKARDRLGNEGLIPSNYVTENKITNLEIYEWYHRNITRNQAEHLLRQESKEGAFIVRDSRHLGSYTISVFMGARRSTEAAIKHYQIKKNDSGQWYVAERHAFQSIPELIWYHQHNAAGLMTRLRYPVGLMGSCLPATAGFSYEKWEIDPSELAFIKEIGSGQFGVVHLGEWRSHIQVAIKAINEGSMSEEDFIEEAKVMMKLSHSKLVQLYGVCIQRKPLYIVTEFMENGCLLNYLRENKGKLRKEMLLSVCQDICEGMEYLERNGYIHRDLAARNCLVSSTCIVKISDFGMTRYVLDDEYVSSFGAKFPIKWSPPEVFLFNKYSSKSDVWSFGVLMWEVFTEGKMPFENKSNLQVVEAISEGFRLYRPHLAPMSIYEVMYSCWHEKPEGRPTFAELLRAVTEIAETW
JAK3, sequence (P52333 whole entry, species assumed): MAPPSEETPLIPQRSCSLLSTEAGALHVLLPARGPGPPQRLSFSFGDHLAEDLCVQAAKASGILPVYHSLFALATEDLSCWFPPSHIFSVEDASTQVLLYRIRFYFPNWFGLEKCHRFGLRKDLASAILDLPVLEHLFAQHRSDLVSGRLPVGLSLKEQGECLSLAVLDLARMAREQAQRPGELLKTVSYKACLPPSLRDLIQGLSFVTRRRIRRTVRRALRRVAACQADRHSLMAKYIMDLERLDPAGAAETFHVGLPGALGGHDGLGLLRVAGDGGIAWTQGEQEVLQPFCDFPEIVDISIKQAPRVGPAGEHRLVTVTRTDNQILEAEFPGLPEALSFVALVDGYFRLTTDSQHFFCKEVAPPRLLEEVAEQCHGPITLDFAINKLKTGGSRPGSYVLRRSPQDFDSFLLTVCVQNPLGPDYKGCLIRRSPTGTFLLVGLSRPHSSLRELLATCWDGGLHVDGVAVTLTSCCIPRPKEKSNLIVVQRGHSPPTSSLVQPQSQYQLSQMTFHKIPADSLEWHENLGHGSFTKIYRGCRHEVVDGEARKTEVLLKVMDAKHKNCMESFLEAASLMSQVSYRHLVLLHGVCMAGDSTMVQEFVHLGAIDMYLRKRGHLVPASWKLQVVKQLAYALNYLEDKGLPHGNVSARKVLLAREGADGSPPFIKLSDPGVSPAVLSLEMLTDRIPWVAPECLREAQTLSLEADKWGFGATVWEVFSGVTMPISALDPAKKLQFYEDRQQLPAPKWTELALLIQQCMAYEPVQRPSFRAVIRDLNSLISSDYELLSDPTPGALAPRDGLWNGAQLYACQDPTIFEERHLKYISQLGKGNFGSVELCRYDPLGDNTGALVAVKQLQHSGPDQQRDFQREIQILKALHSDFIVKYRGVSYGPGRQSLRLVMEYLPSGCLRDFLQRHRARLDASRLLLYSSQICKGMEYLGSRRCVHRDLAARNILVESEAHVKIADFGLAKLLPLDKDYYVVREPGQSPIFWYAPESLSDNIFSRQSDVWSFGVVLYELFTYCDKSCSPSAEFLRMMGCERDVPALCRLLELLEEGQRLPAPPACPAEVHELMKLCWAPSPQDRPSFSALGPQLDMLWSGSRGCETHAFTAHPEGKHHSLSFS
BTK, sequence (Q06187 whole entry, species assumed): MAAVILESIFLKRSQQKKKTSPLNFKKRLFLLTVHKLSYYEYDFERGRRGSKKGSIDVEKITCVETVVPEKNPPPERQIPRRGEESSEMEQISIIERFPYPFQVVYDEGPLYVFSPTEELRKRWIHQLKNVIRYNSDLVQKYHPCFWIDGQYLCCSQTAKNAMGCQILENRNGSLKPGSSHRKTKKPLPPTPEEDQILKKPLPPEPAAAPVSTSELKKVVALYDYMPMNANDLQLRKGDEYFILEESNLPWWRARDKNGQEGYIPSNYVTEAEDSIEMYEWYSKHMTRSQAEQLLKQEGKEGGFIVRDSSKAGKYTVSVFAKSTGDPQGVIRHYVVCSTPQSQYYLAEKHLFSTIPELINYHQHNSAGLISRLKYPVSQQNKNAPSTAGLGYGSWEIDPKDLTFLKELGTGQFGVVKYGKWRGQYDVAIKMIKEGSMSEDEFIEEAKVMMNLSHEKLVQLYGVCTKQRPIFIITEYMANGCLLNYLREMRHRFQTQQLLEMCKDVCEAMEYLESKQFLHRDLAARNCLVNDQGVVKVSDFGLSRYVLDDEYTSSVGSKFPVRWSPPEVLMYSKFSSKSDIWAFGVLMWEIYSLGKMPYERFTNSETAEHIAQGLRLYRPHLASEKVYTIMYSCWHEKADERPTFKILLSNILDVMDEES

Row | IC50 [1] [nM] | TXK/ITK [1] | IC50 [2] [nM] | IC50 [3] [nM] | IC50 [4] [nM] | SMILES
1 | 100 to 1000 | 19.869 | 100 to 1000 | 100 to 1000 | < 10 | C=CC(=O)N1CCN(C(=O)c2cc(Sc3cnc(NC(C)=O)s3)c(C)cc2OC)CC1 [Compound 2]
2 | 100 to 1000 | 5.162 | ≥ 10000 | 1000 to 10000 | 10 to 100 | COc1cc(C)c(Sc2cnc(NC(=O)C3CC3)s2)cc1C(=O)N1CCN(C(=O)/C=C/CN(C)C)CC1 [Compound 3]
3 | 10 to 100 | 0.3296 | 100 to 1000 | 100 to 1000 | 10 to 100 | C=CC(=O)N1CCN(C(=O)c2cccc(Cc3cnc(NC(=O)C4CC4)s3)c2)CC1 [Compound 4]
4 | < 10 | 1.9721 | 100 to 1000 | 10 to 100 | < 10 | C=CC(=O)N1CCN(C(=O)c2cc(Sc3cnc(NC(C)=O)s3)c(C)cc2OC)C(C)(C)C1 [Compound 5]
5 | 100 to 1000 | 5.9566 | 1000 to 10000 | 1000 to 10000 | 10 to 100 | C=CC(=O)N1CCN(C(=O)c2cc(Sc3cnc(NC(C)=O)s3)c(C)cc2OC)CC1(C)C [Compound 6]
6 | 10 to 100 | 14.236 | 100 to 1000 | 100 to 1000 | < 10 | C=CC(=O)N1CCN(C(=O)c2cc(Sc3cnc(NC(C)=O)s3)c(C)cc2OC)[C@@H](C)C1 [Compound 9]
7 | 100 to 1000 | 8.0758 | 1000 to 10000 | 100 to 1000 | 10 to 100 | C=CC(=O)N1CCN(C(=O)c2cc(Sc3cnc(NC(C)=O)s3)c(C)cc2OC)[C@H](C)C1 [Compound 10]
8 | 100 to 1000 | 25.051 | 1000 to 10000 | 1000 to 10000 | < 10 | C=CC(=O)N1CCN(C(=O)c2cc(Sc3cnc(NC(C)=O)s3)c(C)cc2OC)C[C@H]1C [Compound 11]
9 | 100 to 1000 | 14.784 | 100 to 1000 | 100 to 1000 | 10 to 100 | C=CC(=O)N1CCN(C(=O)c2cc(Sc3cnc(NC(C)=O)s3)c(C)cc2OC)C[C@@H]1C [Compound 12]
10 | 100 to 1000 | 22.987 | 1000 to 10000 | 1000 to 10000 | 10 to 100 | C=C(CN(C)C)C(=O)N1CCN(C(=O)c2cc(Sc3cnc(NC(=O)C4CC4)s3)c(C)cc2OC)CC1 [Compound 13]
11 | 100 to 1000 | 79.163 | 1000 to 10000 | 100 to 1000 | < 10 | C=CC(=O)N1CCN(C(=O)c2cc(Sc3cnc(NC(=O)c4cccc(CN(C)C)c4)s3)c(C)cc2OC)CC1 [Compound 14]
12 | < 10 | 1.1111 | 10 to 100 | < 10 | < 10 | C=CC(=O)N1CCN(C(=O)c2cc(Sc3cnc(NC(=O)C4CC4)s3)c(C)cc2OC)C(C)(C)C1 [Compound 15]
13 | 10 to 100 | 4.9287 | 100 to 1000 | 100 to 1000 | 10 to 100 | C=CC(=O)N1CCN(C(=O)c2cc(Sc3cnc(NC(=O)C4CC4)s3)c(C)cc2OC)CC1(C)C [Compound 16]
14 | < 10 | 6.5873 | 100 to 1000 | 10 to 100 | < 10 | C=CC(=O)N1CCN(C(=O)c2cc(Sc3cnc(NC(=O)C4CC4)s3)c(C)cc2OC)[C@@H](C)C1 [Compound 19]
15 | 10 to 100 | 2.2433 | 100 to 1000 | 100 to 1000 | < 10 | C=CC(=O)N1CCN(C(=O)c2cc(Sc3cnc(NC(=O)C4CC4)s3)c(C)cc2OC)[C@H](C)C1 [Compound 20]
16 | 10 to 100 | 6.7674 | 100 to 1000 | 100 to 1000 | < 10 | C=CC(=O)N1CCN(C(=O)c2cc(Sc3cnc(NC(=O)C4CC4)s3)c(C)cc2OC)C[C@@H]1C [Compound 22]
17 | < 10 | 1.4139 | 10 to 100 | < 10 | < 10 | C=CC(=O)N1C[C@@H]2C[C@H]1CN2C(=O)c1cc(Sc2cnc(NC(=O)C3CC3)s2)c(C)cc1OC [Compound 23]
18 | 10 to 100 | 6.6876 | 100 to 1000 | 10 to 100 | < 10 | C=CC(=O)N1C[C@@H]2C[C@H]1CN2C(=O)c1cc(Sc2cnc(NC(C)=O)s2)c(C)cc1OC [Compound 24]

Row | IC50 [1] [nM] | TXK/ITK [1] | IC50 [2] [nM] | IC50 [3] [nM] | IC50 [4] [nM] | SMILES
19 | 10 to 100 | 20.879 | 100 to 1000 | 100 to 1000 | < 10 | C=CC(=O)N1CCCN(C(=O)c2cc(Sc3cnc(NC(=O)C4CC4)s3)c(C)cc2OC)CC1 [Compound 25]
20 | 100 to 1000 | 26.486 | 1000 to 10000 | 1000 to 10000 | 10 to 100 | C=CC(=O)N1CCCN(C(=O)c2cc(Sc3cnc(NC(C)=O)s3)c(C)cc2OC)CC1 [Compound 26]
21 | < 10 | 2.0165 | < 10 | < 10 | < 10 | C=CC(=O)N1CC[C@@H](N(C)C(=O)c2cc(Sc3cnc(NC(=O)C4CC4)s3)c(C)cc2OC)C1 [Compound 27]
22 | 10 to 100 | 5.5925 | 10 to 100 | < 10 | < 10 | C=CC(=O)N1CC[C@@H](N(C)C(=O)c2cc(Sc3cnc(NC(C)=O)s3)c(C)cc2OC)C1 [Compound 28]
23 | < 10 | 2.1804 | 100 to 1000 | 100 to 1000 | < 10 | C=CC(=O)N1CC[C@H](N(C)C(=O)c2cc(Sc3cnc(NC(=O)C4CC4)s3)c(C)cc2OC)C1 [Compound 29]
24 | 10 to 100 | 3.101 | 1000 to 10000 | 100 to 1000 | 10 to 100 | C=CC(=O)N1CC[C@H](N(C)C(=O)c2cc(Sc3cnc(NC(C)=O)s3)c(C)cc2OC)C1 [Compound 30]
25 | 100 to 1000 | 19.291 | 1000 to 10000 | 1000 to 10000 | 10 to 100 | C=CC(=O)N1CCN(C(=O)c2cc(Sc3cnc(NC(=O)C4CCCC4)s3)c(C)cc2OC)CC1 [Compound 31]
26 | 100 to 1000 | 81.114 | 1000 to 10000 | 100 to 1000 | < 10 | C=CC(=O)N1CCN(C(=O)c2cc(Sc3cnc(NC(=O)c4cccc(CN(C)C)c4)s3)c(C)cc2OC)C[C@H]1C [Compound 32]
27 | 10 to 100 | 33.121 | 100 to 1000 | 10 to 100 | < 10 | C=CC(=O)N1CCN(C(=O)c2cc(Sc3cnc(NC(=O)c4ccc(CN(C)C)cc4)s3)c(C)cc2OC)CC1 [Compound 34]
28 | ≥ 10000 | 48.433 | ≥ 10000 | ≥ 10000 | 100 to 1000 | C=CC(=O)N1CCCN(C(=O)c2cc(Sc3cnc(NC(=O)CN(C)C)s3)c(C)cc2OC)CC1 [Compound 35]
29 | 1000 to 10000 | 72.34 | ≥ 10000 | 1000 to 10000 | 10 to 100 | C=CC(=O)N1CCCN(C(=O)c2cc(Sc3cnc(NC(=O)C(C)C)s3)c(C)cc2OC)CC1 [Compound 36]
30 | ≥ 10000 | 46.119 | ≥ 10000 | ≥ 10000 | 100 to 1000 | C=CC(=O)N1CCCN(C(=O)c2cc(Sc3cnc(NC(=O)C4CCN(C)CC4)s3)c(C)cc2OC)CC1 [Compound 37]
31 | 1000 to 10000 | 28.189 | ≥ 10000 | 1000 to 10000 | 10 to 100 | CC#CC(=O)N1CCCN(C(=O)c2cc(Sc3cnc(NC(=O)c4cccc(CN(C)C)c4)s3)c(C)cc2OC)CC1 [Compound 38]
32 | 1000 to 10000 | 1.5 | ≥ 10000 | ≥ 10000 | 100 to 1000 | C=C(C)C(=O)N1CCCN(C(=O)c2cc(Sc3cnc(NC(=O)c4cccc(CN(C)C)c4)s3)c(C)cc2OC)CC1 [Compound 39]
33 | 10 to 100 | 14.491 | 100 to 1000 | 100 to 1000 | < 10 | C=CC(=O)N1CCN(C(=O)c2cc(Sc3cnc(NC(=O)c4ccc(N5CCN(C(=O)OC(C)(C)C)CC5)cc4)s3)c(C)cc2OC)CC1 [Compound 40]
34 | 10 to 100 |  | 1000 to 10000 |  | < 10 | C=CC(=O)N1C[C@H]2CN(C(=O)c3cc(Sc4cnc(NC(=O)C5CC5)s4)c(C)cc3OC)C[C@H]21 [Compound 52]
35 | 100 to 1000 |  | 1000 to 10000 | 1000 to 10000 |  | C=CC(=O)N1CCCN(C(=O)c2cc(Sc3cnc(NC(=O)C4CC4)s3)c(C)cc2OC)C[C@@H]1C [Compound 71]
36 | 10 to 100 |  | 100 to 1000 |  | < 10 | C=CC(=O)N1CCN(C(=O)c2cc(Sc3cnc(NC(=O)C4CC4)s3)c(C)cc2C)C[C@H]1C [Compound 75]

Row | SMILES | IC50 [1] [nM] | TXK/ITK [1] | IC50 [2] [nM] | IC50 [3] [nM] | IC50 [4] [nM]
37 | C=CC(=O)N1C[C@H]2CC[C@@H](C1)N2C(=O)c1cc(Sc2cnc(NC(C)=O)s2)c(C)cc1OC [Compound 7] | 10 to 100 | 11.993 | 10 to 100 | 10 to 100 | < 10
38 | C=CC(=O)N1[C@@H]2CC[C@H]1CN(C(=O)c1cc(Sc3cnc(NC(C)=O)s3)c(C)cc1OC)C2 [Compound 8] | 10 to 100 | 11.265 | 100 to 1000 | 10 to 100 | < 10
39 | C=CC(=O)N1C[C@H]2CC[C@@H](C1)N2C(=O)c1cc(Sc2cnc(NC(=O)C3CC3)s2)c(C)cc1OC [Compound 17] | < 10 | 5.4235 | 10 to 100 | < 10 | < 10
40 | C=CC(=O)N1[C@@H]2CC[C@H]1CN(C(=O)c1cc(Sc3cnc(NC(=O)C4CC4)s3)c(C)cc1OC)C2 [Compound 18] | < 10 | 2.8993 | 10 to 100 | 10 to 100 | < 10

Source: patent US11008314B2, “Compounds and methods for modulating interleukin-2-inducible t-cell kinase” (CORVUS PHARMACEUTICALS, INC., priority 2016, dated 2021)
